Assay results reported in ChEMBL document CHEMBL1201862, “PubChem BioAssay data set” (2004).
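Each compound was tested at five concentrations against cells in 96-well plates for 48 hours. GI50: concentration for 50% inhibition of growth.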 Active and inactive are the calls of the source. No stated cut-off is given here; in the data, active = GI50 up to about 1.1 µM and inactive = higher.

Tests used:
Experiment in all cases: NCI anticancer screen, dose series, 48 h
[1] = tested on: SW-620
[2] = tested on: K562
[3] = tested on: OVCAR-4
[4] = tested on: UACC-62
[5] = tested on: MDA-MB-435
[6] = tested on: CCRF-CEM
[7] = tested on: HOP-62
[8] = tested on: SR
[9] = tested on: U-251
[10] = tested on: A549
[11] = tested on: RXF 393
[12] = tested on: SF-295
[13] = tested on: SNB-75
[14] = tested on: NCI-H226
[15] = tested on: DU-145
[16] = tested on: HCC 2998
[17] = tested on: A498
[18] = tested on: Malme-3M
[19] = tested on: ACHN
[20] = tested on: SN12C
[21] = tested on: MOLT-4
[22] = tested on: SF-268
[23] = tested on: OVCAR-3
[24] = tested on: HCT-116
[25] = tested on: 786-0
[26] = tested on: SF-539
[27] = tested on: MDA-MB-231
[28] = tested on: IGROV-1
[29] = tested on: UO-31
[30] = tested on: M14
[31] = tested on: OVCAR-8
[32] = tested on: EKVX
[33] = tested on: UACC-257
[34] = tested on: SK-OV-3
[35] = tested on: Hs-578T
[36] = tested on: NCI-H23
[37] = tested on: HOP-92
[38] = tested on: SK-MEL-5
[39] = tested on: COLO 205
[40] = tested on: TK-10
[41] = tested on: CAKI-1
[42] = tested on: RPMI-8226
[43] = tested on: HT-29
[44] = tested on: BT-549
[45] = tested on: MCF7
[46] = tested on: HL-60
[47] = tested on: SK-MEL-2
[48] = tested on: HCT-15
[49] = tested on: PC-3
[50] = tested on: KM12
[51] = tested on: OVCAR-5
[52] = tested on: NCI/ADR-RES
[53] = tested on: T47D
[54] = tested on: NCI-H460
[55] = tested on: MDA-N
[56] = tested on: LOX IMVI
[57] = tested on: SK-MEL-28
[58] = tested on: SNB-19
[59] = tested on: NCI-H522
[60] = tested on: DMS-114
[61] = tested on: DMS-273
[62] = tested on: KM-20L2
[63] = tested on: SNB-78
[64] = tested on: M19-MEL

Compound: O=C(NCCCNCCN1C(=O)c2cccc3cc([N+](=O)[O-])cc(c23)C1=O)c1cc(-c2ccccc2)nc2ccccc12
- GI50 [1]: 0.955 µM (active)
- GI50 [2]: 0.836 µM (active)
- GI50 [3]: 3.2 µM (inactive)
- GI50 [4]: 5.12 µM (inactive)
- GI50 [5]: 1.46 µM (inactive)
- GI50 [6]: 0.966 µM (active)
- GI50 [7]: 6.49 µM (inactive)
- GI50 [8]: 0.426 µM (active)
- GI50 [9]: 2.09 µM (inactive)
- GI50 [10]: 3.31 µM (inactive)
- GI50 [11]: 1.49 µM (inactive)
- GI50 [12]: 3.08 µM (inactive)
- GI50 [13]: 3.62 µM (inactive)
- GI50 [14]: 7.26 µM (inactive)
- GI50 [15]: 5.21 µM (inactive)
- GI50 [16]: 1.49 µM (inactive)
- GI50 [17]: 4.2 µM (inactive)
- GI50 [18]: 1.81 µM (inactive)
- GI50 [19]: 0.991 µM (active)
- GI50 [20]: 3.16 µM (inactive)
- GI50 [21]: 0.347 µM (active)
- GI50 [22]: 1.39 µM (inactive)
- GI50 [23]: 5.87 µM (inactive)
- GI50 [24]: 1.23 µM (inactive)
- GI50 [25]: 1.45 µM (inactive)
- GI50 [26]: 1.98 µM (inactive)
- GI50 [27]: 3.01 µM (inactive)
- GI50 [28]: 2.54 µM (inactive)
- GI50 [29]: 2.52 µM (inactive)
- GI50 [30]: 1.72 µM (inactive)
- GI50 [31]: 0.933 µM (active)
- GI50 [32]: 7.52 µM (inactive)
- GI50 [33]: 2.21 µM (inactive)
- GI50 [34]: 8.91 µM (inactive)
- GI50 [35]: 3.41 µM (inactive)
- GI50 [36]: 3.02 µM (inactive)
- GI50 [37]: 3.18 µM (inactive)
- GI50 [38]: 2.09 µM (inactive)
- GI50 [39]: 1.45 µM (inactive)
- GI50 [40]: 7.74 µM (inactive)
- GI50 [41]: 6.07 µM (inactive)
- GI50 [42]: 1.13 µM (inactive)
- GI50 [43]: 0.971 µM (active)
- GI50 [44]: 6.15 µM (inactive)
- GI50 [45]: 2.17 µM (inactive)
- GI50 [46]: 1.76 µM (inactive)
- GI50 [47]: 3.31 µM (inactive)
- GI50 [48]: 3.03 µM
- GI50 [49]: 3.61 µM (inactive)
- GI50 [50]: 4.4 µM (inactive)
- GI50 [51]: 3.94 µM (inactive)
- GI50 [52]: 4.22 µM (inactive)
- GI50 [53]: 8.07 µM (inactive)
- GI50 [54]: 1.55 µM (inactive)
- GI50 [55]: 1.53 µM (inactive)
- GI50 [56]: 1.04 µM (active)
- GI50 [57]: 1.85 µM (inactive)
- GI50 [58]: 3.72 µM (inactive)
- GI50 [59]: 1.62 µM (inactive)

Compound: C=C(C)C1CC=C(C)[C@](O)(C2(O)C[C@H](C(=C)C)CC=C2C)C1 (some centres undefined)
- GI50 [60]: > 100 µM (inactive)
- GI50 [4]: > 100 µM (inactive)
- GI50 [6]: > 100 µM (inactive)
- GI50 [7]: > 100 µM (inactive)
- GI50 [8]: > 100 µM (inactive)
- GI50 [9]: > 100 µM (inactive)
- GI50 [10]: > 100 µM (inactive)
- GI50 [11]: > 100 µM (inactive)
- GI50 [12]: > 100 µM (inactive)
- GI50 [61]: > 100 µM (inactive)
- GI50 [17]: > 100 µM (inactive)
- GI50 [19]: > 100 µM (inactive)
- GI50 [21]: > 100 µM (inactive)
- GI50 [24]: > 100 µM (inactive)
- GI50 [28]: > 100 µM (inactive)
- GI50 [29]: > 100 µM (inactive)
- GI50 [30]: > 100 µM (inactive)
- GI50 [31]: > 100 µM (inactive)
- GI50 [62]: > 100 µM (inactive)
- GI50 [32]: > 100 µM (inactive)
- GI50 [33]: > 100 µM (inactive)
- GI50 [34]: > 100 µM (inactive)
- GI50 [63]: > 100 µM (inactive)
- GI50 [36]: > 100 µM (inactive)
- GI50 [37]: > 100 µM (inactive)
- GI50 [40]: > 100 µM (inactive)
- GI50 [43]: > 100 µM (inactive)
- GI50 [46]: > 100 µM (inactive)
- GI50 [50]: > 100 µM (inactive)
- GI50 [51]: > 100 µM (inactive)
- GI50 [64]: > 100 µM (inactive)
- GI50 [54]: > 100 µM (inactive)
- GI50 [57]: > 100 µM (inactive)
- GI50 [58]: > 100 µM (inactive)
- GI50 [59]: > 100 µM (inactive)
